The first test has as its target T1, human p38 kinase alpha (Homo sapiens, UniProt Q16539).
T1 construct: GST (N, cleaved yes); made in house; host or cells: E. coli DH10B
As to the kind of experiment: p38 kinase in vitro assay, phosphorylation of biotinylated PHAS-I with 32P-ATP. It counts as biochemical. To be noted: @ 1.0 uM.
T1 sequence (Q16539 whole entry): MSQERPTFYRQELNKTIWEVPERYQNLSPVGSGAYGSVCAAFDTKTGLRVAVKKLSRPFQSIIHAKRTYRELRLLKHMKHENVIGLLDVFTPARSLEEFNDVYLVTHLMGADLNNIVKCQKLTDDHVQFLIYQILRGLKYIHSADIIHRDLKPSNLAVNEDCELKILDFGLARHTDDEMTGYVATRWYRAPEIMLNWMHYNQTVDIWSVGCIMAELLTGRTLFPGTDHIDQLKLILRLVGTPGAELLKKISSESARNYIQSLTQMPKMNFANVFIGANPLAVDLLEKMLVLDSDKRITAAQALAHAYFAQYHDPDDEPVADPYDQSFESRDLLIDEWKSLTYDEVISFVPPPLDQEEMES
As to `O=C(NCCCc1[nH]nc(-c2ccc(F)cc2)c1-c1ccncc1)Nc1ccc(F)cc1` [Example B-1211], the “P38 alpha kinase % inhib @ conc.” value is 88.0% @.

As for `O=S(=O)(C=Cc1ccccc1)NCCCc1[nH]nc(-c2ccc(F)cc2)c1-c1ccncc1` [Example B-1193], the “P38 alpha kinase % inhib @ conc. (uM)” value worked out at 69.0% @.

`CC(C)(C)C(=O)NCCCc1[nH]nc(-c2ccc(F)cc2)c1-c1ccncc1` [Example B-1229]: the “P38 alpha kinase % inhib @ conc.” value was 87.0% @.

With `O=S(=O)(NCCc1[nH]nc(-c2ccc(F)cc2)c1-c1ccncc1)c1ccc(F)cc1F` [Example B-1018], the “P38 alpha kinase % inhib @ conc. (uM)” value is 88.0% @.

For `CC(C)COC(=O)NCCc1[nH]nc(-c2ccc(F)cc2)c1-c1ccncc1` [Example B-1010], the “P38 alpha kinase % inhib @ conc. (uM)” value is given as 75.0% @.

On to `COc1cccc(CC(=O)NCCCc2[nH]nc(-c3ccc(F)cc3)c2-c2ccncc2)c1` [Example B-1178], for which the “P38 alpha kinase % inhib @ conc. (uM)” value is 92.0% @.

Regarding `O=C(NCCCc1[nH]nc(-c2ccc(F)cc2)c1-c1ccncc1)c1ccncc1` [Example B-1183], the “P38 alpha kinase % inhib @ conc. (uM)” value came out at 77.0% @.

In the case of `CC(C)(C)C(=O)NCCc1[nH]nc(-c2ccc(F)cc2)c1-c1ccncc1` [Example B-1052], the “P38 alpha kinase % inhib @ conc. (uM)” value was 69.0% @.

In the case of `O=C(NCCc1[nH]nc(-c2ccc(F)cc2)c1-c1ccncc1)c1ccncc1` [Example B-1006], the “P38 alpha kinase % inhib @ conc. (uM)” value stood at 69.0% @.

With `NC(=O)NCCc1[nH]nc(-c2ccc(F)cc2)c1-c1ccncc1` [Example B-1030], the “P38 alpha kinase % inhib @ conc. (uM)” value stood at 76.0% @.

For the compound `O=C(Cc1cccs1)NCCCc1[nH]nc(-c2ccc(F)cc2)c1-c1ccncc1` [Example B-1228], the “P38 alpha kinase % inhib @ conc.” value is 90.0% @.

The same test, now with this note: @ 1.0 uM; read-out: P38 alpha kinase % inhib @ conc.
`COc1ccc(C(=O)NCc2[nH]nc(-c3ccc(F)cc3)c2-c2ccncc2)cc1` [Example B-0039]: the inhibition at 1 µM was 89%.

Take `O=C(NCc1[nH]nc(-c2ccc(F)cc2)c1-c1ccncc1)C(=O)c1c[nH]c2ccccc12` [Example B-0018]: the inhibition at 1 µM is 60%.

Consider `O=C(NCc1[nH]nc(-c2ccc(F)cc2)c1-c1ccncc1)C(c1ccccc1)c1ccccc1` [Example B-0032], for which the inhibition at 1 µM came out at 94%.

With `O=C(NCc1[nH]nc(-c2ccc(F)cc2)c1-c1ccncc1)c1ccccc1[N+](=O)[O-]` [Example B-0024], the inhibition at 1 µM was 94%.

`CC(C)c1cc(C(C)C)c(C(=O)NCc2[nH]nc(-c3ccc(F)cc3)c2-c2ccncc2)c(C(C)C)c1` [Example B-0030]: the inhibition at 1 µM is 92%.

Staying with this test, now noted: @ 10.0 uM.
With `COC(=O)C(NC(=O)Cn1nc(-c2ccc(F)cc2)c(-c2ccncc2)c1C)C(C)C` (centres unmarked) [Example B-2365], the “P38 alpha kinase % inhib @ conc.” value came to 82.0% @.

`Cc1c(-c2ccncc2)c(-c2ccc(F)cc2)nn1CC(=O)N1CCSC1c1ccco1` (centres unmarked) [Example B-2409]: the “P38 alpha kinase IC50, uM or % inhib @ conc. (uM): % inhib” value was 78.0% @.

On to `COC(=O)C(Cc1cn(C)cn1)NC(=O)Cn1nc(-c2ccc(F)cc2)c(-c2ccncc2)c1C` (centres unmarked) [Example B-2361], for which the “P38 alpha kinase % inhib @ conc.” value is recorded as 19.0% @.

`Cc1c(-c2ccncc2)c(-c2ccc(F)cc2)nn1CC(=O)NC1CC1` [Example B-2341]: the “P38 alpha kinase % inhib @ conc.” value turned out to be 75.0% @.

The test is the same for the next values; noted with them: activated human p38 kinase alpha, PHAS-I substrate, 50 μM unlabeled ATP; read-out: p38 kinase IC50.
The IC50 is the concentration that inhibits the measured activity by half. For `Cc1n[nH]c(-c2ccccc2F)c1-c1ccncc1` [Example A-40], the 50% inhibitory concentration (IC50) was 1300 nM.

Staying with this test, now noted: in vitro P38-alpha kinase inhibition; read-out: P38 alpha kinase IC50.
As to `CNC(=O)CCC(NS(C)(=O)=O)c1[nH]nc(-c2ccc(F)cc2)c1-c1ccncc1` (centres unmarked) [Example B-0878], the 50% inhibitory concentration (IC50) was 650 nM.

With `CCS(=O)(=O)NC(C)c1[nH]nc(-c2ccc(F)cc2)c1-c1ccncc1` (centres unmarked) [Example B-0572], the IC50 came to 270 nM.

Take `CCc1ccc(S(=O)(=O)NCCc2[nH]nc(-c3ccc(F)cc3)c2-c2ccncc2)cc1` [Example B-1088]: the IC50 was found to be 730 nM.

Consider `O=C(NCCc1[nH]nc(-c2ccc(F)cc2)c1-c1ccncc1)c1c(F)ccc(F)c1F` [Example B-1131], for which the IC50 is 76 nM.

Regarding `O=C(Nc1cccc(F)c1)NC(Cc1ccccc1)c1[nH]nc(-c2ccc(F)cc2)c1-c1ccncc1` (centres unmarked) [Example B-0740], the concentration for half-maximal inhibition (IC50) was 4400 nM.

Regarding `O=C(NC(Cc1ccccc1)c1[nH]nc(-c2ccc(F)cc2)c1-c1ccncc1)c1ccno1` (centres unmarked) [Example B-0840], the half-inhibitory concentration (IC50) amounted to 630 nM.

On to `O=C(NC(Cc1ccccc1)c1[nH]nc(-c2ccc(F)cc2)c1-c1ccncc1)c1ccc(F)cc1` (centres unmarked) [Example B-0832], for which the concentration for half-maximal inhibition (IC50) stood at 1490 nM.

Regarding `O=S(=O)(NC(Cc1ccccc1)c1[nH]nc(-c2ccc(F)cc2)c1-c1ccncc1)c1ccccc1F` (centres unmarked) [Example B-0759], the IC50 amounted to 300 nM.

Take `CC(NC(=O)c1c(F)cc(F)cc1F)c1[nH]nc(-c2ccc(F)cc2)c1-c1ccncc1` (centres unmarked) [Example B-0684]: the IC50 was determined as 540 nM.

As to `CC(NS(=O)(=O)c1ccc(C(F)(F)F)cc1)c1[nH]nc(-c2ccc(F)cc2)c1-c1ccncc1` (centres unmarked) [Example B-0636], the IC50 was < 100 nM.

Consider `O=S(=O)(NCCc1[nH]nc(-c2ccc(F)cc2)c1-c1ccncc1)c1cccc(C(F)(F)F)c1` [Example B-1099], for which the IC50 worked out at 260 nM.

Regarding `O=C(NC(Cc1ccccc1)c1[nH]nc(-c2ccc(F)cc2)c1-c1ccncc1)c1cccc(Br)c1` (centres unmarked) [Example B-0838], the concentration for half-maximal inhibition (IC50) is 3100 nM.

For `O=S(=O)(NCCc1[nH]nc(-c2ccc(F)cc2)c1-c1ccncc1)c1c(Cl)cccc1Cl` [Example B-1081], the half-maximal inhibitory concentration (IC50) is < 100 nM.

`O=C(NCCc1[nH]nc(-c2ccc(F)cc2)c1-c1ccncc1)c1ccc(Cl)cc1Cl` [Example B-1144]: the concentration for half-maximal inhibition (IC50) came out at 440 nM.

For `CC(NC(=O)N(C)c1ccccc1)c1[nH]nc(-c2ccc(F)cc2)c1-c1ccncc1` (centres unmarked) [Example B-0586], the IC50 turned out to be 810 nM.

As to `O=S(=O)(NCCc1[nH]nc(-c2ccc(F)cc2)c1-c1ccncc1)c1ccc(-c2ccon2)s1` [Example B-1113], the IC50 was < 100 nM.

Regarding `CC(C)COC(=O)NC(Cc1ccccc1)c1[nH]nc(-c2ccc(F)cc2)c1-c1ccncc1` (centres unmarked) [Example B-0826], the 50% inhibitory concentration (IC50) came to 1740 nM.

`O=C(NC(Cc1ccccc1)c1[nH]nc(-c2ccc(F)cc2)c1-c1ccncc1)c1ccccc1` (centres unmarked) [Example B-0851]: the 50% inhibitory concentration (IC50) stood at 910 nM.

Regarding `CC(NC(=O)Nc1ccc(F)cc1)c1[nH]nc(-c2ccc(F)cc2)c1-c1ccncc1` (centres unmarked) [Example B-0583], the concentration for half-maximal inhibition (IC50) was 3930 nM.

Consider `Cc1ccc(S(=O)(=O)NC(Cc2ccccc2)C(=O)NC(Cc2ccccc2)c2[nH]nc(-c3ccc(F)cc3)c2-c2ccncc2)cc1` (centres unmarked) [Example B-0827], for which the IC50 came to 15600 nM.

Staying with this test, now noted: in vitro P38-alpha kinase; read-out: P38 alpha kinase IC50.
Regarding `COc1ccc(Br)cc1S(=O)(=O)NCc1[nH]nc(-c2ccc(F)cc2)c1-c1ccncc1` [Example B-0249], the concentration for half-maximal inhibition (IC50) was < 100 nM.

As for `O=S(=O)(c1ccc(Cl)s1)N1CCC(c2[nH]nc(-c3ccc(F)cc3)c2-c2ccncc2)CC1` [Example B-1438], the IC50 was determined as 2010 nM.

On to `O=S(=O)(NCc1[nH]nc(-c2ccc(F)cc2)c1-c1ccncc1)c1ccc(Br)cc1` [Example B-0224], for which the IC50 is < 100 nM.

Take `O=C(NCCCc1[nH]nc(-c2ccc(F)cc2)c1-c1ccncc1)NCCN1CCCCC1` [Example B-1313]: the IC50 came out at 35 nM.

Take `Cc1ccc(C(=O)NCCCc2[nH]nc(-c3ccc(F)cc3)c2-c2ccncc2)cc1` [Example B-1323]: the concentration for half-maximal inhibition (IC50) stood at 13 nM.

Turning to `O=C(NCCCc1[nH]nc(-c2ccc(F)cc2)c1-c1ccncc1)c1cccc(F)c1F` [Example B-1347], the IC50 is 21 nM.

On to `CCCOC(=O)N1CCC(c2[nH]nc(-c3ccc(F)cc3)c2-c2ccncc2)CC1` [Example B-1423], for which the IC50 is 1580 nM.

For the compound `O=C(NCCCc1[nH]nc(-c2ccc(F)cc2)c1-c1ccncc1)c1ccc(F)cc1C(F)(F)F` [Example B-1340], the IC50 amounted to 43 nM.

Regarding `Cn1cnc(S(=O)(=O)NCCCc2[nH]nc(-c3ccc(F)cc3)c2-c2ccncc2)c1` [Example B-1291], the IC50 turned out to be 97 nM.

As to `Cc1c(-c2ccncc2)c(-c2ccc(F)cc2)nn1CC(=O)NCCCN1CCCC1` [Example B-2307], the IC50 was determined as 2290 nM.

Consider `O=S(=O)(NCCCc1[nH]nc(-c2ccc(F)cc2)c1-c1ccncc1)c1ccc(-c2ccon2)s1` [Example B-1290], for which the IC50 is 260 nM.

Consider `N#Cc1cccc(C(=O)NCCCc2[nH]nc(-c3ccc(F)cc3)c2-c2ccncc2)c1` [Example B-1328], for which the IC50 stood at 32 nM.

As for `O=S(=O)(NCCCc1[nH]nc(-c2ccc(F)cc2)c1-c1ccncc1)c1cc(S(=O)(=O)c2ccccc2)cs1` [Example B-1289], the IC50 amounted to 730 nM.

For `O=C(OCc1ccccc1)N1CCC(c2[nH]nc(-c3ccc(F)cc3)c2-c2ccncc2)CC1` [Example B-1428], the 50% inhibitory concentration (IC50) is < 100 nM.

In the case of `CCNC(=O)Cn1nc(-c2ccc(F)cc2)c(-c2ccncc2)c1C` [Example B-2311], the IC50 was 7180 nM.

Take `CN(C)S(=O)(=O)NCCCc1[nH]nc(-c2ccc(F)cc2)c1-c1ccncc1` [Example B-1292]: the IC50 was found to be 10 nM.

On to `Cc1c(-c2ccncc2)c(-c2ccc(F)cc2)nn1CC(=O)NCc1cccc2ccccc12` [Example B-2285], for which the concentration for half-maximal inhibition (IC50) worked out at 2290 nM.

With `O=C(NCCCc1[nH]nc(-c2ccc(F)cc2)c1-c1ccncc1)c1c(F)cc(F)cc1F` [Example B-1336], the IC50 came out at 72 nM.

For the compound `O=S(=O)(NCCCc1[nH]nc(-c2ccc(F)cc2)c1-c1ccncc1)c1cc(Cl)cc(Cl)c1` [Example B-1269], the IC50 was found to be 460 nM.

On to `O=C(NCCCc1[nH]nc(-c2ccc(F)cc2)c1-c1ccncc1)c1cccc(Cl)c1Cl` [Example B-1333], for which the concentration for half-maximal inhibition (IC50) amounted to 450 nM.

`Cc1ccc(S(C)(=O)=O)cc1S(=O)(=O)NCCCc1[nH]nc(-c2ccc(F)cc2)c1-c1ccncc1` [Example B-1296]: the IC50 was 38 nM.

With `O=S(=O)(c1ccccc1)c1ccc(S(=O)(=O)N2CCC(c3[nH]nc(-c4ccc(F)cc4)c3-c3ccncc3)CC2)s1` [Example B-1441], the half-maximal inhibitory concentration (IC50) came to 1950 nM.

As for `O=C(NCCCc1[nH]nc(-c2ccc(F)cc2)c1-c1ccncc1)c1cc(F)cc(C(F)(F)F)c1` [Example B-1342], the 50% inhibitory concentration (IC50) came out at 250 nM.

As to `O=S(=O)(c1cccs1)N1CCC(c2[nH]nc(-c3ccc(F)cc3)c2-c2ccncc2)CC1` [Example B-1437], the half-inhibitory concentration (IC50) was found to be 300 nM.

Source of the values: patent US6979686B1, “Substituted pyrazoles as p38 kinase inhibitors” (Pharmacia Corporation, priority 2001, dated 2005).
